This assay deals with HCT116 cell lines. Put plainly: IC50 and cell viability assay of clinical drugs (CCK-8). As to conditions: triplicate, mean ± SD, Resistance = drug does not affect cell viability. Type of assay: cell-based, human. Here is the method:
All the mediums were purchased from […].
To determine suitable cell seeding number for each cell line, different number (300, 500, 1000, 3000) of cells/wells were seeded in a 96-well plate. A cell viability was determined using a real-time viability assay (RealTime-Glo™ Assay Reagent). Luminescence intensities were measured at different time points (4, 8, 16, 24, 36, 48, 60 and 72 hours) to evaluate a cell growth curve. To establish IC50 values of ten drugs on each cell line, gradient concentrations of each drug were prepared. […] The cell viability was measured with Cell Counting Kit 8 (e.g., CCK-8 purchased from Dojindo molecular technologies, Japan), and cell viability assay was performed after 2 hours of incubation by measuring the absorbances at 450 nm. Relative cell numbers were determined as compared with the control cells. All experiments were performed in triplicate manner, and data were represented as expressed as mean±standard deviation (mean±SD).

Setting [1] is: Homo sapiens, HCT-116, CCK-8, absorbance 450 nm.

As usually defined, the IC50 is the concentration that inhibits the measured activity by half. A high value points to a need for much substance. `O=C1[O][Pt]2([NH][C@@H]3CCCC[C@H]3[NH]2)[O]C1=O` [Oxaliplatin (O), Oxaliplatin] yielded an IC50 (CCK-8, absorbance 450 nm) of 10.3 ± 3.27 µM.
The compound `Nc1ccn([C@@H]2O[C@H](CO)[C@@H](O)C2(F)F)c(=O)n1` [Gemcitabine (G), Gemcitabine] had an IC50 under setting [1] of 0.183 µM.
Still for that read-out and setting: under `CCc1c2c(nc3ccc(OC(=O)N4CCC(N5CCCCC5)CC4)cc13)-c1cc3c(c(=O)n1C2)COC(=O)[C@]3(O)CC` [Irinotecan (I), Irinotecan] stands 0.01 ± 0.03 µM; under `CNC(=O)c1cc(Oc2ccc(NC(=O)Nc3ccc(Cl)c(C(F)(F)F)c3)c(F)c2)ccn1` [Regorafenib (R), Regorafenib], 5.89 ± 0.713 µM.
The same measure, in the same setting: under `COc1cc2nccc(Oc3ccc(NC(=O)NC4CC4)c(Cl)c3)c2cc1C(N)=O` [Lenvatinib (L), Lenvatinib] stands 28.5 ± 0.802 µM.
For the compound `Nc1nc(=O)c2c([nH]1)NCC(CNc1ccc(C(=O)N[C@@H](CCC(=O)O)C(=O)O)cc1)N2C=O` (mixture of isomers) [Folinic acid (F), Folinic acid], where the note is “CCK-8, absorbance 450 nm”, the “IC50 (μM) ± SD” value is on record as “Resistance”.
Consider `O=c1[nH]cc(F)c(=O)[nH]1` [5-FU (U), 5-Fluorouracil], for which the IC50 under setting [1] is 8.56 ± 0.897 µM.
For Panitumumab [Panitumumab (P)], where the note is “CCK-8, absorbance 450 nm”, the “IC50 (μM) ± SD” value is “Resistance”.
Turning to Bevacizumab [Bevacizumab (B)], the “IC50 (μM) ± SD” value (CCK-8, absorbance 450 nm) was “Resistance”.

Source of the values: US20240207237A1, “METHOD OF SCREENING FOR DRUG COMBINATION FOR COLORECTAL CARCINOMA TREATMENT, DRUG COMBINATION AND USE THEREOF” (National Tsing Hua University, priority 2022, published 2024).
